In patent publication US20230295182A1, “SPIRO DERIVATIVES OF ALPHA-D-GALACTOPYRANOSIDES” (Idorsia Pharmaceuticals Ltd, priority 2020, published 2023):

Experiments:
[1] = molecular target: human Gal-3 (hGal-3) (Homo sapiens (Human), UniProt P17931); assay: Competitive binding assay: biotinylated hGal-3 to microplate-adsorbed asialofetuin (ASF); conditions: Activity on hGal-3; binding to ASF-coated plates, 3 hours at 4° C.; mean values
Outline: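 Biotinylated hGal-3 (300-1000 ng/mL) binding to plate-adsorbed asialofetuin, with DMSO-diluted compound added, incubated 3 h at 4 °C. After washing, bound protein detected with streptavidin-peroxidase (80 ng/mL, 1 h, 4 °C) and ABTS substrate, read spectrophotometrically. IC50 given as mean of several measurements.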

[2] = molecular target: human Gal-1 (hGal-1) (Homo sapiens, UniProt P09382); assay: Competitive binding assay: biotinylated hGal-1 to microplate-adsorbed asialofetuin (ASF); conditions: Activities on hGal-1; binding to ASF-coated plates, 3 hours at 4° C.; mean values; read-out: Gal-1 IC50
Sequence of human Gal-1 (hGal-1) (P09382 2-135 limits assumed): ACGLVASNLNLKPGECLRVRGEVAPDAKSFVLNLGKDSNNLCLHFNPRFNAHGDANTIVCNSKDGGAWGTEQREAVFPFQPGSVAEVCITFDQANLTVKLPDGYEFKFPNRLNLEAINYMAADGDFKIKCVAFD
Outline: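 Plate-adsorbed asialofetuin is incubated 3 h at 4 °C with biotinylated hGal-1, optionally its all-serine-substituted cysteine variant, plus compound dilutions. ABTS color after 1 h streptavidin-peroxidase (80 ng/mL) at 4 °C reports binding. Reported IC50 is a mean across repeat runs.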

Sequence of human Gal-3 (hGal-3) (P17931 whole entry): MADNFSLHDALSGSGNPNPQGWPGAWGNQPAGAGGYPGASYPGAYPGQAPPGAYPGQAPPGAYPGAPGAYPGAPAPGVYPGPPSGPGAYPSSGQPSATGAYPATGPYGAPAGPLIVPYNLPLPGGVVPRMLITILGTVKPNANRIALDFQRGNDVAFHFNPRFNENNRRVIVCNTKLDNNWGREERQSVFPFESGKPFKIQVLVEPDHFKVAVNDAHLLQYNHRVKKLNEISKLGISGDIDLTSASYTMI

| SMILES | IC50 [1] | IC50 [2] |
| --- | --- | --- |
| CO[C@@H]1[C@@H](n2cc(-c3cc(F)c(F)c(F)c3)nn2)[C@@H](O)[C@@H](CO)O[C@@H]1CC1=NOC2(CCCCC2)C1 [Example 1.08, (2R,3R,4S,5R,6R)-6-((1-oxa-2-azaspiro[4.5]dec-2-en-3-yl)methyl)-2-(hydroxymethyl)-5-methoxy-4-(4-(3,4,5-trifluorophenyl)-1H-1,2,3-triazol-1-yl)tetrahydro-2H-pyran-3-ol] | 240 nM | 1900 nM |
| CO[C@@H]1[C@@H](n2cc(-c3cc(F)c(F)c(F)c3)nn2)[C@@H](O)[C@@H](CO)O[C@@H]1CC1=NOC2(CCN(S(C)(=O)=O)CC2)C1 [Example 2.31, (2R,3R,4S,5R,6R)-2-(hydroxymethyl)-5-methoxy-6-((8-(methylsulfonyl)-1-oxa-2,8-diazaspiro[4.5]dec-2-en-3-yl)methyl)-4-(4-(3,4,5-trifluorophenyl)-1H-1,2,3-triazol-1-yl)tetrahydro-2H-pyran-3-ol] | 530 nM | 3500 nM |
| CO[C@@H]1[C@@H](n2cc(-c3ccc(C)c(F)c3F)nn2)[C@@H](O)[C@@H](CO)O[C@@H]1CC1=NOC2(CCC(C#N)CC2)C1 (stereo partly drawn) [Example 1.51, 3-(((2R,3R,4S,5R,6R)-4-(4-(2,3-difluoro-4-methylphenyl)-1H-1,2,3-triazol-1-yl)-5-hydroxy-6-(hydroxymethyl)-3-methoxytetrahydro-2H-pyran-2-yl)methyl)-1-oxa-2-azaspiro[4.5]dec-2-ene-8-carbonitrile] | 100 nM | 1900 nM |
| CO[C@@H]1[C@@H](n2cc(-c3ccc(F)c(F)c3F)nn2)[C@@H](O)[C@@H](CO)O[C@@H]1CC1=NOC2(CCCCC2)C1 [Example 1.13, (2R,3R,4S,5R,6R)-6-((1-oxa-2-azaspiro[4.5]dec-2-en-3-yl)methyl)-2-(hydroxymethyl)-5-methoxy-4-(4-(2,3,4-trifluorophenyl)-1H-1,2,3-triazol-1-yl)tetrahydro-2H-pyran-3-ol] | 140 nM | 520 nM |

Further compounds by falling IC50 [1], results first:

| IC50 [1] | IC50 [2] | SMILES |
| --- | --- | --- |
| 240 nM | 5100 nM | CNC(=O)CO[C@@H]1[C@@H](n2cc(-c3cc(F)c(F)c(F)c3)nn2)[C@@H](O)[C@@H](CO)O[C@@H]1CC1=NOC2(CCCCC2)C1 [Example 1.70, 2-(((2R,3R,4S,5R,6R)-2-((1-oxa-2-azaspiro[4.5]dec-2-en-3-yl)methyl)-5-hydroxy-6-(hydroxymethyl)-4-(4-(3,4,5-trifluorophenyl)-1H-1,2,3-triazol-1-yl)tetrahydro-2H-pyran-3-yl)oxy)-N-methylacetamide] |
| 110 nM | 4000 nM | CO[C@@H]1[C@@H](n2cc(-c3ccc(C)c(F)c3F)nn2)[C@@H](O)[C@@H](CO)O[C@@H]1CC1=NOC2(CCC(F)(F)CC2)C1 [Example 1.26, (2R,3R,4S,5R,6R)-6-((8,8-difluoro-1-oxa-2-azaspiro[4.5]dec-2-en-3-yl)methyl)-4-(4-(2,3-difluoro-4-methylphenyl)-1H-1,2,3-triazol-1-yl)-2-(hydroxymethyl)-5-methoxytetrahydro-2H-pyran-3-ol] |
| 90 nM | 2300 nM | CO[C@@H]1[C@@H](n2cc(-c3ccc(C)c(F)c3F)nn2)[C@@H](O)[C@@H](CO)O[C@@H]1CN1CC2(CCOCC2)OC1=O [Example 3.03, 3-(((2R,3R,4S,5R,6R)-4-(4-(2,3-difluoro-4-methylphenyl)-1H-1,2,3-triazol-1-yl)-5-hydroxy-6-(hydroxymethyl)-3-methoxytetrahydro-2H-pyran-2-yl)methyl)-1,8-dioxa-3-azaspiro[4.5]decan-2-one] |
| 62 nM | 910 nM | CO[C@@H]1[C@@H](n2cc(-c3ccc(Cl)c(F)c3F)nn2)[C@@H](O)[C@@H](CO)O[C@@H]1CC1=NO[C@]2(CC[C@H](NC(C)=O)CC2)C1 [Example 2.07, N-((5r,8R)-3-(((2R,3R,4S,5R,6R)-4-(4-(4-chloro-2,3-difluorophenyl)-1H-1,2,3-triazol-1-yl)-5-hydroxy-6-(hydroxymethyl)-3-methoxytetrahydro-2H-pyran-2-yl)methyl)-1-oxa-2-azaspiro[4.5]dec-2-en-8-yl)acetamide] |
